This note sets out measurements from ChEMBL document CHEMBL3046883, “Evaluation of insecticidal activity of diterpenes and lignans from Aristolochia malmeana against Anticarsia gemmatalis” (2008).

The structures appear in SMILES notation. Calls of active or inactive are those of the source. No cut-off for these calls is given here.

For this test, the system named is Anticarsia gemmatalis. The test can be described thus: Insecticidal activity against Anticarsia gemmatalis (velvetbean caterpillar) third-instar larvae exposed to compound through topical dosing at mesothorax region assessed as induction of larval mortality. In kind it is functional.

As to `C=C1C=C(C)[C@]2(C)CC[C@@H](C)[C@](C)(CC/C(C)=C/C(=O)O)[C@H]2C1`, the LD50 entry was “inactive”.

With `COc1ccc(C[C@H]2COC(=O)[C@@H]2Cc2ccc3c(c2)OCO3)cc1OC` [(-)-KUSUNOKININ], the LD10 was 9.3 µg/µL, the LD50 is 230.1 µg/µL and the inhibition result is “Dose-dependent effect”.

As to `O=C1OC[C@H](Cc2ccc3c(c2)OCO3)[C@H]1Cc1ccc2c(c1)OCO2`, the LD50 entry was “inactive”.
